Test results as given in US8629148B2, “Substituted oxindole-derivatives and the use thereof for the treatment of vasopressin-dependent illnesses” (AbbVie Deutschland GmbH & Co. KG, priority 2007, dated 2014).

Columns and labels:
[1] = biological target: T1, human vasopressin V1b receptor (Homo sapiens, UniProt P47901); experiment: Vasopressin V1b receptor binding assay (3H-AVP displacement, CHO-K1 membranes)
T1 construct: expressed in transfected cells; host or cells: CHO-K1 (cell line hV1b_3H2_CHO), membranes
T1 sequence (P47901 1-424): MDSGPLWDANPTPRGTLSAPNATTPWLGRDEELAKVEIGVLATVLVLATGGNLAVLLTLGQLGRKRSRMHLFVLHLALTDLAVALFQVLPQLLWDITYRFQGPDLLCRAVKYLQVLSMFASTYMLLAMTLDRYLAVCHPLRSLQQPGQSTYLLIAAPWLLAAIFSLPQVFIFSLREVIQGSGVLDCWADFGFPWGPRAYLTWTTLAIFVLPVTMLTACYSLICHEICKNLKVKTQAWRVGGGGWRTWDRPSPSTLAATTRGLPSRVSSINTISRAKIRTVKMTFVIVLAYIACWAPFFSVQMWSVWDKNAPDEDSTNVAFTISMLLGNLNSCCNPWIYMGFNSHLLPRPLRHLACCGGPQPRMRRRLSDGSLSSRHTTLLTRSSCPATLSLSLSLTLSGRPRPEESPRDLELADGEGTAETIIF
Method: 1. Vasopressin V1b Receptor Binding Assay:
The substance concentration was further diluted 1:5 in the assay mixture (2% DMSO in the mixture).
All determinations were carried out as triplicate determinations.

[2] = biological target: T2, recombinant human oxytocin receptors (Homo sapiens, UniProt P30559); experiment: Oxytocin receptor binding assay (3H-oxytocin, HEK-293 cells); conditions: selectivity quotient, human OT vs human V1b
T2 construct: expressed in transfected cells; host or cells: HEK-293, transient expression; lysed and homogenized cells
T2 sequence (P30559 1-389): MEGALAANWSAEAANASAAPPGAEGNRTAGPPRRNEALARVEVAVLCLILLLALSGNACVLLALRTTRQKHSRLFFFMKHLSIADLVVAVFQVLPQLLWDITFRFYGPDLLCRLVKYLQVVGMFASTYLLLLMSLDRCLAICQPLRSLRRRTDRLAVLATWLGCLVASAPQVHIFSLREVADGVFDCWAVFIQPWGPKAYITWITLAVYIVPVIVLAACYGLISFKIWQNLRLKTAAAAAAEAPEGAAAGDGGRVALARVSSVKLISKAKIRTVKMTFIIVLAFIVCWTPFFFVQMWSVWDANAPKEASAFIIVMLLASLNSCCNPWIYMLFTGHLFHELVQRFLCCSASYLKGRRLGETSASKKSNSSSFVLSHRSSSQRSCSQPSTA
Method: The residue was taken up in ice-cold lysis buffer (50 mM Tris-HCl, 10% glycerol, pH 7.4 and Roche complete protease inhibitor) and subjected to an osmotic shock at 4° C. for 20 minutes. The lyzed cells were then centrifuged at 750×g at 4° C. for 20 minutes, the residue was taken up in incubation buffer, and aliquots of 10^7 cells/ml were prepared. The aliquots were frozen at −80° C. until used.
On the day of the experiment, the cells were thawed, diluted with incubation buffer and homogenized using a Multipette Combitip (Eppendorf, Hamburg). […] Triplicate determinations were set up. Bound and free radioligand were separated by filtration under vacuum with Whatman GF/B glass fiber filters with the aid of a Skatron cell harvester 7000. The bound radioactivity was determined by liquid scintillation measurement in a Tricarb Beta counter, model 2000 or 2200CA (Packard).

[3] = biological target: human vasopressin V1a receptor (Homo sapiens, UniProt P37288); experiment: Vasopressin V1a receptor binding assay (125I-AVP displacement, CHO-K1 membranes); conditions: selectivity quotient, human V1a vs human V1b
human vasopressin V1a receptor, sequence (P37288 whole entry): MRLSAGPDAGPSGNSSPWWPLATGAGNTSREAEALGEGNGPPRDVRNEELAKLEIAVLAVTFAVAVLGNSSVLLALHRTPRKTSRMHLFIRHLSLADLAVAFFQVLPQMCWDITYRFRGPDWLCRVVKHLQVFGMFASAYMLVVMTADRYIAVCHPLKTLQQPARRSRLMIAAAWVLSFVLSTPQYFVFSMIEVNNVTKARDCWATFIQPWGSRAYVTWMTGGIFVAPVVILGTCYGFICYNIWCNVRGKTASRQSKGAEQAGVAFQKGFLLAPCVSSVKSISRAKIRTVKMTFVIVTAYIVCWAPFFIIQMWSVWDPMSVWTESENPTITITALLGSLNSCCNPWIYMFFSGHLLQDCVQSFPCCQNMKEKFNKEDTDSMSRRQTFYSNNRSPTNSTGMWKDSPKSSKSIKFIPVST

Compound | Ki [1] [nM] | Ki(h-OT)/Ki(h-V1b)* [2] | Ki(h-V1a)/Ki(h-V1b)* [3]
CCOc1ncccc1C1(Nc2ccc(C(=O)N3CCN(C)CC3)cc2)C(=O)N(S(=O)(=O)c2ccc(OC)cc2OC)c2ccc(C#N)cc21 (stereo not drawn) [Example 73, 1-(2,4-Dimethoxyphenylsulfonyl)-3-(2-ethoxypyridin-3-yl)-3-[4-(4-methylpiperazin-1-carbonyl)phenylamino]-2-oxo-2,3-dihydro-1H-indole-5-carbonitrile] | 10 to 100 | ++ (25-75) | +++ (>75)
CCOc1ncccc1C1(Nc2ccc(CN3CCN(C)CC3)cc2)C(=O)N(S(=O)(=O)c2ccc(OC)cc2OC)c2ccc(C#N)cc21 (stereo not drawn) [Example 74, 1-(2,4-Dimethoxyphenylsulfonyl)-3-(2-ethoxypyridin-3-yl)-3-[4-(4-methylpiperazin-1-ylmethyl)phenylamino]-2-oxo-2,3-dihydro-1H-indole-5-carbonitrile] | 1 to 10 | +++ (>75) | +++ (>75)
CCOc1ncccc1C1(Nc2ccc(CN3CCN(C)CC3)cc2)C(=O)N(S(=O)(=O)c2ccc(OC)cc2)c2ccc(C#N)cc21 (stereo not drawn) [Example 75, 3-(2-Ethoxypyridin-3-yl)-1-(4-methoxyphenylsulfonyl)-3-[4-(4-methylpiperazin-1-ylmethyl)-phenylamino]-2-oxo-2,3-dihydro-1H-indole-5-carbonitrile] | 10 to 100 | +++ (>75) | ++ (25-75)
COc1ccc(S(=O)(=O)N2C(=O)C(NCc3ccc(N4CCN(C)CC4)cc3)(c3cccnc3OCC(F)(F)F)c3cc(C#N)ccc32)cc1 (stereo not drawn) [Example 77, 1-(4-Methoxyphenylsulfonyl)-3-(2-(2,2,2-trifluoroethoxy)pyridin-3-yl)-3-[4-(4-methylpiperazin-1-yl)benzylamino]-2-oxo-2,3-dihydro-1H-indole-5-carbonitrile] | 1 to 10 | ++ (25-75) | ++ (25-75)
CCN1CCN(c2ccc(NC3(c4cccnc4OCC(F)F)C(=O)N(S(=O)(=O)c4ccc(OC)cc4)c4ccc(C#N)cc43)cc2)CC1 (stereo not drawn) [Example 79, 3-[4-(4-Ethylpiperazin-1-yl)phenylamino]-1-(4-methoxyphenylsulfonyl)-3-(2-(2,2-difluoroethoxy)pyridin-3-yl)-2-oxo-2,3-dihydro-1H-indole-5-carbonitrile] | 10 to 100 | +++ (>75) | ++ (25-75)
